Data published in EP1140984B1, “SELECTIVE INHIBITORS OF MMP-12” (Aventis Pharmaceuticals Inc., priority 1998, dated 2000).
Counter-ions that a name gives are not always drawn.

Key:
MMP-1 = biological target: T1, MMP-1 (Homo sapiens, UniProt P03956); assay: Determination of inhibition constant (Ki) for MMP-1, fluorogenic substrate assay; type: biochemical; conditions: substrate Mca-Pro-Leu-Gly-Leu-Dpa-Ala-Arg-NH2, 37°C, pH 7.6, [S] = 1 µM, [MMP-1] = 0.8 nM
T1 construct: The active MMP-1 was obtained by treatment of proMMP-1 with trypsin; endogenous in cells; host or cells: human rheumatoid synovial fibroblasts stimulated with macrophage-conditioned medium
T1 sequence (P03956 100-469): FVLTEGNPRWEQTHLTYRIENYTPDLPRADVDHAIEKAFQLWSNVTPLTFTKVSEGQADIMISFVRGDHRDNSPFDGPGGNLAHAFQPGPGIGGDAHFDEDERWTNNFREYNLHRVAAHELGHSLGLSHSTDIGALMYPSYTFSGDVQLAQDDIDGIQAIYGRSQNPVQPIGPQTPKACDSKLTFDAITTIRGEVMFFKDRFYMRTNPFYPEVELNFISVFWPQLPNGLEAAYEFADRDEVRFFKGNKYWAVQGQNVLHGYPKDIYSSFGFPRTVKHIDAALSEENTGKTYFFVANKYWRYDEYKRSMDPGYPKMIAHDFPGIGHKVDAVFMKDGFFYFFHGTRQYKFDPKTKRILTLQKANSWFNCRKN
Experimental: ProMMP-1 (EC 3.4.24.7; interstitial collagenase) was purified from culture medium of human rheumatoid synovial fibroblasts stimulated with macrophage-conditioned medium according to Okada, Y. et al., J. Biol. Chem. 261, 14245-14255 (1986). The active MMP-1 was obtained by treatment of proMMP-1 with trypsin (5 µg/mL) at 37°C for 30 minutes, followed by addition of soybean trypsin inhibitor (50 µg/mL).
The activated MMP-1 is assayed using a fluorogenic substrate, Mca-Pro-Leu-Gly-Leu-Dpa-Ala-Arg-NH2, Knight, C.G. et al., FEBS Lett. 296, 263-266 (1992), at 37°C in 2.0 mL of assay buffer containing 50 mM Tris, pH 7.6, 0.2 M sodium chloride, 50 mM calcium chloride, and 0.02% Brij-35. The increase in fluorescence due to cleavage of Gly-Leu peptide bond by MMP-3 was monitored with Perkin-Elmer LS50B Fluorimeter (λex 328 nm, λem 393 nm, excitation slit 2.5, emission slit 10). Substrate and inhibitor stock solutions were made in DMF. For determination of Ki values for MMP-1 inhibitors, a series of intermediate inhibitor solutions were prepared in DMF and 1 or 2 µL of the diluted inhibitor solution was mixed with 1 µL of 2 mM substrate solution in DMF in a quartz cuvette containing 2 mL of assay buffer. The enzyme (10 µL of 0.2 µM MMP-3 dilution in assay buffer) was added at the last to start the reaction. For routine measurement of a Ki value for a reversible, competitive inhibitor, the initial rates in the presence of at least four inhibitor concentrations (two concentrations above K; and two concentrations below Ki) were measured using [S] = 1 µM (<< Km) and [MMP-1] = 0.8 nM. Under these conditions, the measured Ki, app is close to true Ki.
The Ki for a competitive inhibitor is calculated using: v0/vi = (1 + [I]/Ki,app) and Ki = Ki,app/(1 + [S]/Km), where v0 is the initial rate in the absence of inhibitor, vi is the initial rate in the presence of inhibitor at the concentration of [I], [S] is the substrate concentration, and Km is the Michaelis constant. If slow binding is observed (i.e. if the approach to the binding equilibrium is slow), the final steady-state rate rather than the initial rate is taken as vi.

MMP-12 = biological target: T2, MMP-12 (Homo sapiens, UniProt P39900); assay: Determination of inhibition constant (Ki) for MMP-12 (macrophage metalloelastase), fluorogenic substrate assay, cuvette or microtiter plate; type: biochemical; conditions: substrate Mca-Pro-Leu-Gly-Leu-Dpa-Ala-Arg-NH2, 25°C, pH 7.6, [MMP-12] = 2 nM
T2 construct: made in house
Experimental: MMP-12 (EC 3.4.24.65) was cloned, expressed and purified according to Shapiro, S.D. et al., J Biol. Chem. 268, 23824-23829 (1993). […] Aliquots of MMP-12 were stored at -70C.
The potency of inhibitors of MMP-12 was measured using either quartz cuvettes or microtiter plates. The activity of MMP-12 was measured using a fluorogenic substrate, Mca-Pro-Leu-Gly-Leu-Dpa-Ala-Arg-NH2, Knight, C.G. et al., FEBS Lett. 296, 263-266 (1992), at 25°C in an assay buffer containing 50 mM Tris, pH 7.6, 0.2 M sodium chloride, 50 mM calcium chloride, and 0.02% Brij-35. The increase in fluorescence due to cleavage of Gly-Leu peptide bond by MMP-12 was monitored with a Perkin-Elmer LS50B Fluorimeter (λex 328 nm, λem 393 nm, excitation slit 2.5, emission slit 10) for the cuvette assay and with a Molecular Devices Fmax fluorescence plate reader (λex 320 nm, λem 405 nm) for the microtiter plate assay. Substrate and inhibitor stock solutions were made in N,N-dimethylformamide (DMF) and 0.1% HCl-DMF, respectively.
Ki values were determined using the cuvette method by preparing a series of intermediate inhibitors solutions in 0.1% HCl-DMF and mixing the inhibitor with substrate (final concentration 2 µM) in a quartz cuvette containing 2 ml of assay buffer. MMP-12 was added to start the reaction at a concentration of 2 nM and progress curves were generated. For routine measurement of a Ki value for a reversible competitive inhibitor, the initial rates in the presence of at least four inhibitor concentrations (two concentrations above and two concentrations below the Ki) were measured [S] = 2 µM (<<Km) and [MMP-12] = 2 nM. Under these conditions, the measured Ki,app is close to the true Ki.
Ki values were determined using the microtiter plate method in a manner similar to that described for the cuvette method with some modifications. Four different inhibitor concentrations (50 µl in assay buffer) of each compound were added to separate wells of a microtiter plate and substrate was added (100 µl) to get a final concentration of […]. MMP-12 was added to a final concentration of 2 nM (50 µl) to start the reaction. Cleavage of substrate was recorded every 30 seconds for 30 minutes and progress curves were generated.
The Ki for a competitive inhibitor was calculated using: Vo/Vi = (1+[I]/Ki,app) and Ki = Ki,app/(1+[S]/Km), where Vo is the initial rate in the absence of inhibitor, Vi is the initial rate in the presence of inhibitor at the concentration of [I], [S] is the substrate concentration, and Km is the Michaelis constant. If slow binding is observed (i.e. if the approach to the binding equilibium is slow), the final steady-state rate rather than the initial rate is taken as Vi.

T2 sequence (P39900 106-263 limits assumed): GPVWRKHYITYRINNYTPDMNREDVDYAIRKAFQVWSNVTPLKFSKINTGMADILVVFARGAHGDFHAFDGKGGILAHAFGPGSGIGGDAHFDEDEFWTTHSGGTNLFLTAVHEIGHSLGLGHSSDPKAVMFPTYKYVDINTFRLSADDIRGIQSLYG

Ki (MMP-1)	Ki (MMP-12)	Structure (SMILES)
518 nM	14 nM	CC(C)C[C@H](NC(=O)C(S)C(C)C)C(=O)N[C@@H](Cc1ccccc1)C(=O)O (stereo in doubt) [Example 3, (S)-2-Mercapto-3-methylbutyroyl-(L)-leucyl-(L)-phenylalanine]
153 nM	14 nM	CSCC[C@H](NC(=O)C(S)C(C)C)C(=O)N[C@@H](Cc1ccccc1)C(=O)O (stereo in doubt) [Example 4, (S)-2-Mercapto-3-methylbutyroyl-(L)-methionyl-(L)-phenylalanine]
3910 nM	151 nM	CC(C)C(S)C(=O)N[C@@H](CCCCN)C(=O)N[C@@H](Cc1ccccc1)C(=O)O (stereo in doubt) [Example 5, (S)-2-Mercapto-3-methylbutyroyl-(L)-lysyl-(L)-phenylalanine trifluoroacetic acid salt]
5800 nM	13 nM	CCCC(S)C(=O)N[C@@H](CCc1ccccc1)C(=O)N[C@@H](Cc1ccccc1)C(=O)O (some centres unmarked) [Example 1, 2-Mercapto-pentanoyl-(L)-homo-phenylalanyl-(L)-phenylalanine]
5110 nM	4 nM	CC(C)[C@H](S)C(=O)N[C@@H](CCc1ccccc1)C(=O)N[C@@H](Cc1ccccc1)C(=O)O [Example 2, (S)-2-Mercapto-3-methylbutyroyl-(L)-homo-phenylalanyl-(L)-phenylalanine]
360 nM	14 nM	CCCC(S)C(=O)N[C@@H](CCc1ccccc1)C(=O)N[C@@H](Cc1ccccc1)C(=O)NC (stereo partly drawn) [Example 6, (S)-2-Mercaptopentanoyl-(L)-homo-phenylalanyl-(L)-phenylalanine N-methyl amide]
465 nM	0.6 nM	CNC(=O)[C@H](Cc1ccccc1)NC(=O)[C@H](CCc1ccccc1)NC(=O)[C@@H](S)C(C)C [Example 7, (S)-2-Mercapto-3-methylbutyroyl-(L)-homo-phenylalanyl-(L)-phenylalanine N-methyl amide]
